The values that follow are results of earlier work, collected in patent US11446274B2, “Use of dianhydrogalactitol or derivatives or analogs thereof for treatment of pediatric central nervous system malignancies” (DelMar Pharmaceuticals, Inc., priority 2015, dated 2022).

Like-named read-outs stand apart in the source and are kept apart here.

For data set [1], the system named is cells that are either MGMT-positive or MGMT-negative or MMR-proficient or MMR-deficient. The settings on record: cited from earlier work.
For data set [2], the target named is glycogen synthase kinase-3β (GSK-3β) (Homo sapiens, UniProt P49841). Conditions: cited from earlier work.
glycogen synthase kinase-3β (GSK-3β), sequence (P49841 whole entry, species assumed): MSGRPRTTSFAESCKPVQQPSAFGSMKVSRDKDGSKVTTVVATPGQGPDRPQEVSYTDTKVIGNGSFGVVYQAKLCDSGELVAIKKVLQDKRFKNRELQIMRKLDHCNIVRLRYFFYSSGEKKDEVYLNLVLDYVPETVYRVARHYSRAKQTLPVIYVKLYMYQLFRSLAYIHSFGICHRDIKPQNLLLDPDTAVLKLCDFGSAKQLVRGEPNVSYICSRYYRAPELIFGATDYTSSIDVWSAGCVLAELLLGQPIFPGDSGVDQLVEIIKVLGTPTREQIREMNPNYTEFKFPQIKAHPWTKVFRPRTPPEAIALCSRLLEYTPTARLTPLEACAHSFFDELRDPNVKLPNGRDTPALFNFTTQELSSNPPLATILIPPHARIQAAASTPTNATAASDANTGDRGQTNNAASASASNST

Consider `N.N.[Cl][Pt][Cl]` [cisplatin], for which the sensitivity result is reported as “Resistant” in data set [1] (MGMT Negative, MMR-Deficient); “Sensitive” in data set [1] (MGMT Negative, MMR-Proficient); “Resistant” in data set [1] (MGMT Positive, MMR-Deficient); “Sensitive” in data set [1] (MGMT Positive, MMR-Proficient).
With `CN1C(=O)/C(=C2/C(=O)Nc3ccccc32)c2ccccc21` [Meisoindigo, meisoindigo], the “concentration for inhibition of GSK-3β” value in data set [2] is 5 to 50 nM.
